Measurements from patent US11530210B2, “Substituted heteroaromatic pyrazolo-pyridines and their use as GLUN2B receptor modulators” (JANSSEN PHARMACEUTICA NV, priority 2019, dated 2022).
Structures can show the parent of a compound that is named as a salt.

target: T1, human GluN1/GluN2B NMDA receptors (Homo sapiens, UniProt Q13224); assay: Calcium flux (FLIPR) assay on cloned human NR1/GluN2B ion channels expressed in mammalian cells (standard and HTS variants); type: cell-based; settings: cells expressing human GluN1/GluN2B, glutamate and glycine co-agonists
T1 construct: expressed in transfected cells
How it was run: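 Tet-On-induced stable cell line loaded with Calcium 5 dye; compounds applied 5 min (agonist check), then glutamate at ~EC40 plus 10 μM glycine for 5 min. Buffer pH 7.4 with 0.5 mM MgCl2 in dye loading (standard) or 1.5 mM (HTS). FLIPR fluorescence normalized to control wells; (+)MK-801 as antagonist control.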

T1 sequence (Q13224 27-1484, other chains not shown): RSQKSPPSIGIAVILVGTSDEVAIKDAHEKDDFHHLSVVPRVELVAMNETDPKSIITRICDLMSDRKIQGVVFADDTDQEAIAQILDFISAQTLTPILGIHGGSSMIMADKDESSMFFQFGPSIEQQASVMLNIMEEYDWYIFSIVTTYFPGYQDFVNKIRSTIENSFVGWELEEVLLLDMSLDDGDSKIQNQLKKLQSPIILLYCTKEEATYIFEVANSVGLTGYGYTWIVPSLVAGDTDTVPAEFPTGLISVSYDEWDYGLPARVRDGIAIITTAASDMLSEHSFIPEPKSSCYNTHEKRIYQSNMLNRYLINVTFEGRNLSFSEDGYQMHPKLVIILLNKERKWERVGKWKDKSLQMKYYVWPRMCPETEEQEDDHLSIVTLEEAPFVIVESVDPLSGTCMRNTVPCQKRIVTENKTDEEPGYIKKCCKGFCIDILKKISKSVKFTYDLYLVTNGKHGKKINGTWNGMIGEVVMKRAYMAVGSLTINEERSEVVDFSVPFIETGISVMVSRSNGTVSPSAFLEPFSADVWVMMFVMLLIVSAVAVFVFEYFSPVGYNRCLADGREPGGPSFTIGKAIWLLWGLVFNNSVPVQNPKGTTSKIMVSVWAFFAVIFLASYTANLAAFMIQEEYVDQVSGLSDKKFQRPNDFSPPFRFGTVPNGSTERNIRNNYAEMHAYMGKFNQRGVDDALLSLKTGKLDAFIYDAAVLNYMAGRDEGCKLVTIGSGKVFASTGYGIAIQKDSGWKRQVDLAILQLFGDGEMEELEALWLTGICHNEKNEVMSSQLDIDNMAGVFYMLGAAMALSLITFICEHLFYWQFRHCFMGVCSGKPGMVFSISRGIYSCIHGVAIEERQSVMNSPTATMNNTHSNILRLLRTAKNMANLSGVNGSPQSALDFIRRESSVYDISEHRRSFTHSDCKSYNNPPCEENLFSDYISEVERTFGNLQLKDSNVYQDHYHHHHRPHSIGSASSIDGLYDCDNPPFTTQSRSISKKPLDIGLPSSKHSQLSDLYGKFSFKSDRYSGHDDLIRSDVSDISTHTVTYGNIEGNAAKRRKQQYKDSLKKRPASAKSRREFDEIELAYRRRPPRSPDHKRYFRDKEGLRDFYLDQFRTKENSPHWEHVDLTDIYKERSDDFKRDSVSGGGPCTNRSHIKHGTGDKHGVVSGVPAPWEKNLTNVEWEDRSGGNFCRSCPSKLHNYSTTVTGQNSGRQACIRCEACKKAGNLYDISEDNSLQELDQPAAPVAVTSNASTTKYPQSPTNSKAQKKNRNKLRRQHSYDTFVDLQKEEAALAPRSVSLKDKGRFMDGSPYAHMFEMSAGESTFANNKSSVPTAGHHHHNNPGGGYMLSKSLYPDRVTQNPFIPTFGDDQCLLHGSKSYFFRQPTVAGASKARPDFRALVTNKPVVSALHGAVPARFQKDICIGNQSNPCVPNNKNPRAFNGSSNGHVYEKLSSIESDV

Q: How did the IC50 turn out when `Fc1cccc(-c2cnc3cnn(Cc4cccnn4)c3c2)c1` [Example 256, 6-(3-Fluorophenyl)-1-(pyridazin-3-ylmethyl)pyrazolo[4,3-b]pyridine trifluoroacetate salt] was run?
A: The IC50 was 1410 nM.

Q: Which IC50 does the source give for `CC(F)(F)c1cccc(-c2cnc3cnn(Cc4cccnn4)c3c2)c1` [Example 257, 6-[3-(1,1-Difluoroethyl)phenyl]-1-(pyridazin-3-ylmethyl)pyrazolo[4,3-b]pyridine] here?
A: Its IC50 is 110 nM.

Q: `FC(F)(F)c1cccc(-c2cnc3cnn(Cc4cccnn4)c3c2)c1` [Example 258, 1-(Pyridazin-3-ylmethyl)-6-[3-(trifluoromethyl)phenyl]pyrazolo[4,3-b]pyridine] was tested. Which IC50 did it give?
A: The IC50 was 240 nM.

Q: How did the IC50 turn out when `Cc1cc(-c2cnc3cnn(Cc4cccnn4)c3c2)ccc1F` [Example 259, 6-(4-Fluoro-3-methyl-phenyl)-1-(pyridazin-3-ylmethyl)pyrazolo[4,3-b]pyridine trifluoroacetate salt] was run?
A: Its IC50 is 30 nM.

Q: How did the IC50 turn out when `CC(F)(F)c1cc(-c2cnc3cnn(Cc4cccnn4)c3c2)ccc1F` [Example 260, 6-[3-(1,1-Difluoroethyl)-4-fluoro-phenyl]-1-(pyridazin-3-ylmethyl)pyrazolo[4,3-b]pyridine] was run?
A: The IC50 was 162 nM.

Q: How did the IC50 turn out when `Cc1ccc(Cn2ncc3ncc(-c4ccc(F)c(C(F)F)c4)cc32)nn1` [Example 262, 6-[3-(Difluoromethyl)-4-fluoro-phenyl]-1-[(6-methylpyridazin-3-yl)methyl]pyrazolo[4,3-b]pyridine] was run?
A: Its IC50 is 273 nM.

Q: `Fc1ccc(-c2cnc3cnn(Cc4cccnn4)c3c2)cc1OC(F)F` [Example 263, 6-[3-(Difluoromethoxy)-4-fluoro-phenyl]-1-(pyridazin-3-ylmethyl)pyrazolo[4,3-b]pyridine] was tested. Which IC50 did it give?
A: The IC50 was 112 nM.

Q: `Cc1ccc(Cn2ncc3ncc(-c4ccc(F)c(OC(F)F)c4)cc32)nn1` [Example 264, 6-[3-(Difluoromethoxy)-4-fluoro-phenyl]-1-[(6-methylpyridazin-3-yl)methyl]pyrazolo[4,3-b]pyridine] was tested. Which IC50 did it give?
A: The IC50 was 626 nM.

Q: How did the IC50 turn out when `FC(F)Oc1cc(-c2cnc3cnn(Cc4cccnn4)c3c2)ccc1Cl` [Example 265, 6-[4-Chloro-3-(difluoromethoxy)phenyl]-1-(pyridazin-3-ylmethyl)pyrazolo[4,3-b]pyridine] was run?
A: Its IC50 is 115 nM.

Q: How did the IC50 turn out when `Fc1ccc(-c2cnc3cnn(Cc4cccnn4)c3c2)cc1F` [Example 266, 6-(3,4-Difluorophenyl)-1-(pyridazin-3-ylmethyl)pyrazolo[4,3-b]pyridine] was run?
A: The IC50 was 670 nM.

Q: With `Cc1cc(-c2cnc3cnn(Cc4cccnn4)c3c2)ccc1Cl` [Example 267, 6-(4-Chloro-3-methyl-phenyl)-1-(pyridazin-3-ylmethyl)pyrazolo[4,3-b]pyridine] as the molecule, how does the IC50 read?
A: Its IC50 is 404 nM.

Q: For `Fc1cc(-c2cnc3cnn(Cc4cccnn4)c3c2)cc(F)c1F` [Example 268, 1-(Pyridazin-3-ylmethyl)-6-(3,4,5-trifluorophenyl)pyrazolo[4,3-b]pyridine], which IC50 is on record?
A: Its IC50 is 673 nM.

Q: With `Cc1c(F)ccc(-c2cnc3cnn(Cc4cccnn4)c3c2)c1F` [Example 269, 6-(2,4-Difluoro-3-methyl-phenyl)-1-(pyridazin-3-ylmethyl)pyrazolo[4,3-b]pyridine] as the molecule, how does the IC50 read?
A: The IC50 was 108 nM.

Q: `Fc1ccc(-c2cnc3cnn(Cc4ccncn4)c3c2)cc1C(F)F` [Example 270, 6-[3-(Difluoromethyl)-4-fluoro-phenyl]-1-(pyrimidin-4-ylmethyl)pyrazolo[4,3-b]pyridine] was tested. Which IC50 did it give?
A: The IC50 was 176 nM.

Q: How did the IC50 turn out when `Fc1ccc(-c2cnc3cnn(Cc4ccncn4)c3c2)cc1OC(F)F` [Example 271, 6-[3-(Difluoromethoxy)-4-fluoro-phenyl]-1-(pyrimidin-4-ylmethyl)pyrazolo[4,3-b]pyridine] was run?
A: Its IC50 is 401 nM.

Q: With `Fc1ccc(-c2cnc3cnn(Cc4cnccn4)c3c2)cc1C(F)F` [Example 272, 6-[3-(Difluoromethyl)-4-fluoro-phenyl]-1-(pyrazin-2-ylmethyl)pyrazolo[4,3-b]pyridine] as the molecule, how does the IC50 read?
A: The IC50 was 37 nM.

Q: For `Fc1ccc(-c2cnc3cnn(Cc4cnccn4)c3c2)cc1OC(F)F` [Example 273, 6-[3-(Difluoromethoxy)-4-fluoro-phenyl]-1-(pyrazin-2-ylmethyl)pyrazolo[4,3-b]pyridine], which IC50 is on record?
A: Its IC50 is 320 nM.

Q: With `CC(F)(F)c1cccc(-c2cnc3cnn(Cc4cncnc4)c3c2)c1` [Example 274, 6-[3-(1,1-Difluoroethyl)phenyl]-1-(pyrimidin-5-ylmethyl)pyrazolo[4,3-b]pyridine] as the molecule, how does the IC50 read?
A: Its IC50 is 51 nM.

Q: `FC(F)(F)c1cccc(-c2cnc3cnn(Cc4cncnc4)c3c2)c1` [Example 276, 1-(Pyrimidin-5-ylmethyl)-6-[3-(trifluoromethyl)phenyl]pyrazolo[4,3-b]pyridine] was tested. Which IC50 did it give?
A: Its IC50 is 145 nM.

Q: Which IC50 does the source give for `CC(F)(F)c1cc(-c2cnc3cnn(Cc4cncnc4)c3c2)ccc1F` [Example 277, 6-[3-(1,1-Difluoroethyl)-4-fluoro-phenyl]-1-(pyrimidin-5-ylmethyl)pyrazolo[4,3-b]pyridine] here?
A: Its IC50 is 65 nM.

Q: Which IC50 does the source give for `Fc1ccc(-c2cnc3cnn(Cc4cncnc4)c3c2)cc1OC(F)F` [Example 278, 6-[3-(Difluoromethoxy)-4-fluoro-phenyl]-1-(pyrimidin-5-ylmethyl)pyrazolo[4,3-b]pyridine] here?
A: The IC50 was 52 nM.

Q: How did the IC50 turn out when `FC(F)Oc1cc(-c2cnc3cnn(Cc4cncnc4)c3c2)ccc1Cl` [Example 279, 6-[4-Chloro-3-(difluoromethoxy)phenyl]-1-(pyrimidin-5-ylmethyl)pyrazolo[4,3-b]pyridine] was run?
A: The IC50 was 90 nM.

Q: Which IC50 does the source give for `Cc1cc(Cn2ncc3ncc(-c4ccc(F)c(C(F)F)c4)cc32)ncn1` [Example 280, 6-[3-(Difluoromethyl)-4-fluoro-phenyl]-1-[(6-methylpyrimidin-4-yl)methyl]pyrazolo[4,3-b]pyridine] here?
A: The IC50 was 226 nM.

Q: How did the IC50 turn out when `Cc1cc(Cn2ncc3ncc(-c4ccc(F)c(OC(F)F)c4)cc32)ncn1` [Example 281, 6-[3-(Difluoromethoxy)-4-fluoro-phenyl]-1-[(6-methylpyrimidin-4-yl)methyl]pyrazolo[4,3-b]pyridine] was run?
A: The IC50 was 984 nM.

Q: How did the IC50 turn out when `Cc1nccc(Cn2ncc3ncc(-c4ccc(F)c(C(F)F)c4)cc32)n1` [Example 282, 6-[3-(Difluoromethyl)-4-fluoro-phenyl]-1-[(2-methylpyrimidin-4-yl)methyl]pyrazolo[4,3-b]pyridine] was run?
A: The IC50 was 387 nM.

Q: How did the IC50 turn out when `Cc1nccc(Cn2ncc3ncc(-c4cccc(C(F)(F)F)c4)cc32)n1` [Example 283, 1-[(2-Methylpyrimidin-4-yl)methyl]-6-[3-(trifluoromethyl)phenyl]pyrazolo[4,3-b]pyridine] was run?
A: Its IC50 is 3250 nM.

Q: `Cc1nccc(Cn2ncc3ncc(-c4ccc(F)c(OC(F)F)c4)cc32)n1` [Example 284, 6-[3-(Difluoromethoxy)-4-fluoro-phenyl]-1-[(2-methylpyrimidin-4-yl)methyl]pyrazolo[4,3-b]pyridine] was tested. Which IC50 did it give?
A: Its IC50 is 942 nM.

Q: For `Cc1ncc(Cn2ncc3ncc(-c4ccc(F)c(F)c4)cc32)cn1` [Example 285, 6-(3,4-Difluorophenyl)-1-[(2-methylpyrimidin-5-yl)methyl]pyrazolo[4,3-b]pyridine], which IC50 is on record?
A: The IC50 was greater than 10000 nM.

Q: Which IC50 does the source give for `Cc1ncc(Cn2ncc3ncc(-c4ccc(Cl)c(C)c4)cc32)cn1` [Example 286, 6-(4-Chloro-3-methyl-phenyl)-1-[(2-methylpyrimidin-5-yl)methyl]pyrazolo[4,3-b]pyridine] here?
A: Its IC50 is 3020 nM.

Q: Which IC50 does the source give for `Cc1cnc(Cn2ncc3ncc(-c4cccc(C(F)(F)F)c4)cc32)nc1` [Example 287, 1-[(5-Methylpyrimidin-2-yl)methyl]-6-[3-(trifluoromethyl)phenyl]pyrazolo[4,3-b]pyridine] here?
A: The IC50 was 3240 nM.
